Here are results for 1 compound from US12480166B2, “Multiplexed fuel analysis” (ANDE Corporation, priority 2018, dated 2025).

The subject of assay [1] is filamentous fungi 18S, T3. Nature of the assay: General 6-plex Fuel Assay (multiplexed PCR after centrifugation/DNaseI processing) of commercial fleet diesel samples before and after biocide treatment. Type of assay: cell-based. As to conditions: real-world diesel samples from commercial fleets, after vs before biocide treatment; FIG. 41. The source says: (§1) The approach relies in part on centrifugation to allow phase separation and to separate the intact microbial cells and cellular debris from the exposed, extracellular genomic DNA material. The extracellular material is then selectively degraded with addition of an enzyme, DNaseI. Note than DNA degradation enzymes in addition to DNAseI can be used in this approach-many such enzymes are available including restriction enzymes (particularly frequent cutters), other endonucleases, and exonucleases. DNA may also be degraded using physical methods.
(§2) Mock fuel samples were prepared by adding 200 μl of buffer (e.g. 1×PBS, or a preferred solution to prevent cells from lysing while providing an optimal chemical environment for downstream processing) to 800 μl of diesel fuel (previously determined to be negative for microbial contamination) and spiked with 500 ng of purified Bacillus DNA and live Pseudomonas cells (approximately […]). This allowed clear distinction between DNA present extracellularly and intracellularly. The resulting sample was mixed by multiple inversions and then subjected to centrifugation at 20,000×g for 2 minutes to pelletize the live Pseudomonas cells. […]
(§3) Biocide performance was also measured using an ATP assay for measurement of total microbial load. […]

The test system of the next assay is general bacteria 16S,T1. Described as above. It counts as cell-based. As to conditions: real-world diesel samples from commercial fleets, after vs before biocide treatment; FIG. 41.
Text: as §1, §2, §3

Turning to `N#CSCSC#N` [biocide, methylenebisthiocyanate], in assay [1], the “filamentous fungi 18S, T3 signal after biocide treatment” value is listed as “loss”. Besides, the “decline in general bacteria 16S,T1 signal after biocide treatment” value in the assay with general bacteria 16S,T1 is recorded as “approximately 75%”.
